On the set-up of data set [1]: method as in PMID 11117653. The note with it: healthy volunteers; cited from earlier work.
The conditions of data set [2]: cited from earlier work.
The conditions of data set [3]: gliclazide; ref Proks et al., 2018 [46]; cited from earlier work.
A short description of data set [4]: In vitro dissolution testing under biorelevant media-change conditions. In kind it is physicochemical. Particulars: conditions without vs with omeprazole (gastric pH). As for the experimental part:
In order to estimate the drug release rate in vivo and concomitant absorption profile, dissolution tests were performed under biorelevant media-change conditions (Table 3), using USP apparatus 2 (Erweka DT 800, Heusenstamm, Germany) at 37 ± 0.5 °C and rotational speed of 100 rpm. Withdrawn aliquots were filtered, diluted and analysed for gliclazide by UV spectrophotometry (UV-1700 spectrophotometer, Shimadzu, Japan). The absorbance obtained at 226 nm was corrected by subtracting the absorbance obtained at 290 nm, according to British Pharmacopeia. All measurements were performed in triplicate. The pH values and tablet residence time in each medium were selected based on the proposed biorelevant dissolution test conditions. […] Medium pH 6.0 was used to simulate the fed state luminal conditions in the ascending colon.

In data set [5] the test system is CYP2C19. Put plainly: CYP2C19-mediated metabolism (fm, intrinsic clearance). It is filed as in vitro ADME, human. As for the experimental part:
(§1) Absorption was described by a first-order absorption model in line with previous studies. The steady-state volume of distribution (Vss) value was based on previous models.
(§2) The full PBPK model was developed for gliclazide using a middle-out approach. The Vss was predicted by Simcyp Rodgers et al. + ion membrane permeability model. […] The intrinsic clearances per pmol of CYP enzymes were calculated using total intrinsic clearance measured in vitro in human liver microsomes, and fm values obtained from in vivo data. […] Considering the difference in abundance and activity of the transporter between liver and the transfected cell line, a relative activity factor (RAF) was optimized to fit the observed clinical data. Liver passive diffusion clearance (ClPD) of gliclazide was estimated based on experimental logD7.4 value.

Another data set deals with Mrp2. The arrangement: method as in PMID 18799822. Particulars: cited from earlier work.
For data set [6] the following is noted: cited from earlier work. The source holds these as a separate data set.
Data set [7] can be described thus: Population observational study of patients with T2D (GoDARTS): severe gliclazide-induced hypoglycemia. In kind it is in vivo, human. Particulars: gliclazide-treated cohort with genetic data (48 cases and 288 controls); OR (95% CI), p = 0.187.
From the text: We used the Scottish Ambulance Service data and the Accident and Emergency diagnosis records to identify severe cases of hypoglycemia in Tayside and Fife, Scotland. […] Logistic regression was used to analyze the effect of the CYP2C19 variants and co-treatment with PPIs on gliclazide-induced hypoglycemia. All analyses were adjusted for known clinical predictors of hypoglycemia, including age, sex, age of T2D diagnosis, body mass index, creatinine and HbA1c [53], as well as the overall number of medications used as a proxy for comorbidities [54]. The CYP2C19 phenotypes were assigned based on diplotypes in the same manner as in healthy volunteers. The analyses were performed using SAS 9.3 (SAS Institute Inc., Cary, NC, USA). Statistical significance was set at p < 0.05.
For data set [8], the system named is CYP2C9. The note with it: human liver microsomes, CYP selective inhibitors; cited from earlier work.
Data set [9] relates to CYP2C19. Particulars: cited from earlier work.
The test system of a further data set is OATP1B1. Particulars: cited from earlier work.
Data set [10] can be described thus: Clinical trial on omeprazole-gliclazide interaction in healthy volunteers, CYP2C19 NM/RM/UM. Particulars: for AUC(0-t): male, human, serum, oral, 40 mg, gliclazide 40 mg tablet, current trial, geometric mean (95% CI), read-out: AUC0–24, observed. In kind it is in vivo, human. The text has this: Fifteen healthy volunteers (men, age 18–30 years, non-smokers) with CYP2C19 NM/RM/UM status were recruited. The exclusion criteria included: a medical history of hepatic, renal, gastrointestinal or hematologic disease or any acute or chronic disease; drug allergy to sulfonylureas or PPIs; history of drug abuse; abnormalities in physical examination, ECG or routine clinical laboratory tests (including fasting blood glucose concentration); medication use during the 14 days prior to and during the study period; grapefruit, grapefruit juice, alcohol, beverages or food containing methylxanthines use during the 72 h prior to and during the study period.
On day 5 of each admission period, after an overnight fast, the volunteers were admitted to the hospital. […] Drugs were given in a sitting position, at 8 AM. Volunteers were not permitted to lie down or sleep for the next 4 h after taking drugs, as well as to perform any strenuous activities for the next 24 h. In order to counteract the blood glucose-lowering action of gliclazide, volunteers received standardized meals: breakfast at 30 min after gliclazide intake, snacks after 2 and 3 h, a lunch (warm meal) after 4 h, a snack after 6 h, dinner after 8 h, and additional snacks at 10 h and 12 h after drugs administration. No other food and drink (with the exception of water) were allowed. For safety reasons, the volunteers were under direct medical supervision throughout the 24 h following drugs administration. Fast-acting carbohydrates, glucose solution for i.v. use and glucagon for intramuscular use were available in case of hypoglycemia.
Venous blood samples were collected on day 5 of each admission period before dosing (0 h) and 0.5, 1, 1.5, 2, 2.5, 3, 3.5, 4, 4.5, 5, 6, 8, 10, 12, 15 and 24 h after gliclazide administration. Serum samples for gliclazide quantification were separated within 30 min following each blood sample collection and stored at −80 °C until the analysis.
Serum gliclazide concentrations were quantified using a validated stable isotope dilution liquid chromatography-tandem mass spectrometry (LC-MS/MS) method. In brief, a total of 10 µL serum was added to 90 µL acetonitrile containing 100 ng/mL of d4-gliclazide and 0.1% formic acid. […] Gliclazide was quantitated by the triple quadrupole mass spectrometer in ESI positive ion mode. […] The limit of quantification was 3.1 ng/mL.
PK parameters were calculated in a noncompartmental analysis using PKSolver, a program for PK data analysis in Microsoft Excel. The area under the plasma gliclazide concentration-time curve (AUC) up to the last concentration measured (AUC0–t) was determined using the linear trapezoidal rule.
The main evaluated outcome was systemic exposure to gliclazide, expressed as AUC0–t. The geometric mean was calculated for AUC0–24. […]

The conditions of data set [11]: single oral gliclazide, healthy Chinese volunteers, cited from earlier work.
In data set [12] the test system is CYP2C9. In words: CYP2C9-mediated metabolism (fm, intrinsic clearance). It is filed as in vitro ADME, human. Particulars: gliclazide; calculated from microsomal total intrinsic clearance [10], CYP abundances and fm [36]. As to the method: as §2
For data set [13] the following is noted: omeprazole, cited from earlier work.
For data set [14], the system named is CYP2C19. More on the design: method as in Ogilvie et al., 2011 [27]. The note with it: omeprazole; ref Ogilvie et al., 2011 [27]; cited from earlier work.
On the set-up of data set [15]: method as in Hassan-Alin et al., 2005 [30]. The note with it: geometric mean (95% CI), ref Hassan-Alin et al., 2005 [30], cited from earlier work; for Cmax: read-out: Cmax, observed.
Data set [16] has as its system CYP3A4. More on the design: method as in PMID 24739523. Particulars: omeprazole; average value for CYP2C19 EM/RM/UM phenotypes; cited from earlier work.
The subject of data set [17] is CYP3A4. Put plainly: CYP3A4-mediated metabolism (fm, intrinsic clearance). In kind it is in vitro ADME, human. Particulars: omeprazole; retrograde calculated from observed Clpo after 20 mg single dose, fa*fg = 1.
From the text: as §1

Data set [18] deals with CYP2C19. The note with it: previous study based on omeprazole enantiomers; cited from earlier work.
[19] abbreviates: gliclazide 30 mg MR tablet, single oral, geometric mean (95% CI).
The mark [20] stands for this setting: gliclazide 80 mg IR tablet, single oral, geometric mean (95% CI).
Where [21] appears, read: gliclazide i.v. infusion 30 mg, geometric mean (95% CI).
Setting [22] is: gliclazide model input, ref Grbic et al., 2011 [40].
The mark [23] stands for this setting: gliclazide, ref Chen et al., 2018 [37].
The mark [24] stands for this setting: first-order absorption model, ref Ogilvie et al., 2011 [27].
[25] abbreviates: omeprazole model input, ref Ogilvie et al., 2011 [27].

Read-outs that look alike come from different tables or passages of the source. Some results are limits rather than exact numbers.

With `COc1ccnc(C[S+]([O-])c2nc3ccc(OC(F)F)cc3[nH]2)c1OC` (stereo not drawn) [pantoprazole], in data set [1], the “Effect of pantoprazole on glibenclamide PK” value is given as “no effect”.

Consider `Cc1ccc(S(=O)(=O)NC(=O)NN2CC3CCCC3C2)cc1` (stereo not drawn) [gliclazide], for which, in data set [2] (setting [19]), the “AUC0–72, observed” value is on record as 14.4 (12.4–16.8) µgh/mL; the “AUC0–∞, observed” value is 15.6 (13.5–18.1) µgh/mL; the “Cmax, observed” value was 0.71 (0.62–0.82) µg/mL. For the same compound, the “tmax, observed” value in data set [2] (gliclazide 30 mg MR tablet, single oral, median (minimum–maximum)) was 7 (4–10) h. Further, in [2] (setting [20]), the “AUC0–48, observed” value is on record as 45.5 (38.9–53.3) µgh/mL; the “AUC0–∞, observed” value is recorded as 50.9 (42.8–60.5) µgh/mL; the “Cmax, observed” value was 3.51 (3.24–3.80) µg/mL; the “tmax, observed” value is 3.66 (3.10–4.33) h. Moreover, in data set [2] (setting [21]), the “AUC0–72, observed” value was 15.5 (13.0–18.5) µgh/mL; the “AUC0–∞, observed” value was 17.2 (14.5–20.3) µgh/mL; the “Cmax, observed” value was 1.39 (1.16–1.67) µg/mL. Further, in data set [2] (gliclazide), the “Vss observed in humans in vivo” value was 0.19 to 0.46 L/kg. Further, in data set [3], the “fu (fraction unbound)” value is reported as 0.15. Also, the “Initial gliclazide release rate between media pH 1.6 and pH 3.0” value in [4] is recorded as “no difference”. In the data set with CYP2C19 [5] (gliclazide, calculated from microsomal total intrinsic clearance [10], CYP abundances and fm [36]), the “Clint CYP2C19” value is 0.273 µL/min/pmol. Also, the “Substrate for the efflux Mrp2 transporter in rats” value in the data set with Mrp2 is given as “substrate”. Also, the lipophilicity (Log P) in [6] (gliclazide model input, ref El-Sabawi, et al., 2014 [45]) is on record as 2.04. In data set [6] (setting [22]), the Compound type entry is “Ampholyte”, the “pKa (first value)” value was 2.9 and the “pKa (second value)” value was 5.8. In data set [7], the “Odds ratio of hypoglycemia for the loss-of-function CYP2C19*2 allele” value is 0.50 (0.18–1.40). Moreover, the “Contribution of CYP2C9 to gliclazide metabolism” value in the data set on CYP2C9 [8] was “at least 65%”. Moreover, the “Contribution of CYP2C19 to gliclazide metabolism” value with CYP2C19 [9] (human liver microsomes, CYP selective inhibitors) is on record as no more than 35%. In the data set with OATP1B1, the “Substrate of hepatic OATP1B1 transporter” value was “substrate”. Moreover, in the data set with OATP1B1 (setting [23]), the Km is 30.2 µM and the “OATP1B1 Jmax” value is recorded as 12.9 pmol/min/10^6 cells. In addition, in data set [10] (40 mg gliclazide with placebo or 20 mg omeprazole, healthy volunteers), the “Hypoglycemia or other adverse effects in the trial” value is “no cases of hypoglycemia or any other adverse effect”. The “Geometric mean ratio of gliclazide AUC0–24, omeprazole phase/placebo phase” value in [10] (40 mg gliclazide, 20 mg omeprazole 5 days, 14 healthy volunteers NM/RM/UM, ratio (90% CI)) was 1.13 (0.86–1.48). In addition, the AUC(0-t) in data set [10] (omeprazole phase) turned out to be 3730 ng·h/mL. The AUC(0-t) in data set [10] (placebo phase) is 3290 ng·h/mL. In [11] (ref 11), the “Observed gliclazide AUC, fold higher in CYP2C19 PM compared to NM” value is reported as 3.4 fold. In [11] (ref 12), the “Observed gliclazide AUC, fold higher in CYP2C19 PM compared to NM” value is 5.1 fold. In addition, the “Clint CYP2C9” value in the data set on CYP2C9 [12] is recorded as 0.004 µL/min/pmol.

`COc1ccc2[nH]c([S+]([O-])Cc3ncc(C)c(OC)c3C)nc2c1` (stereo not drawn) [omeprazole]: in data set [13] (setting [24]), the “fa (fraction absorbed)” value is recorded as 1 and the “ka (absorption rate constant)” value is 6 h⁻¹. Moreover, in data set [13] (minimal PBPK model, ref Deng 2016 [29], Wu et al., 2014 [28]), the Vss is listed as 0.15 L/kg. Moreover, in data set [13] (ref Wu et al., 2014 [28], Feng et al., 2015 [42]), the “ClR (renal clearance)” value is given as 0.037 L/h. Further, the Ki in the data set on CYP2C19 [14] was 5 µM. Further, the “Clint CYP2C19” value with CYP2C19 [5] (omeprazole, retrograde calculated from observed Clpo after 20 mg single dose, fa*fg = 1) is 75.1 µL/min/pmol. Moreover, in data set [15] (omeprazole 20 mg day 1), the “AUC0–∞, observed” value is reported as 1.04 (0.64–1.72) µM × h and the Cmax was 1040 nM. Further, in [15] (omeprazole 20 mg day 5), the “AUC0–∞, observed” value is 1.63 (0.96–2.78) µM × h and the Cmax was 1430 nM. Besides, in data set [15] (omeprazole 40 mg day 1), the “AUC0–∞, observed” value was 2.44 (1.53–3.91) µM × h and the Cmax was 2320 nM. In data set [15] (omeprazole 40 mg day 5), the “AUC0–∞, observed” value was 5.79 (3.60–9.33) µM × h and the Cmax is 3870 nM. For the same compound, in data set [6] (setting [25]), the Compound type entry is “Ampholyte” and the “pKa (first value)” value is given as 4.4. In the data set on CYP2C19 [9] (omeprazole, average value for CYP2C19 EM/RM/UM phenotypes), the “fm CYP2C19” value is listed as 86%. In the data set on CYP3A4 [16], the “fm CYP3A4” value is given as 14%. Besides, in the data set on CYP3A4 [17], the “Clint CYP3A4” value is listed as 0.39 µL/min/pmol. In the data set with CYP2C19 [18], the “Predicted lowest level of active CYP2C19, previous study” value was 14%.

Source of the values: paper PMC8147656 (Journal of Personalized Medicine, 2021).
